# According to ChEMBL document CHEMBL5614409, “Discovery of potent HIV-1 NNRTIs by CuAAC click-chemistry-based miniaturized synthesis, rapid screening and structure optimization” (Eur J Med Chem, 2024):
# Target: Human immunodeficiency virus type 1 reverse transcriptase (Human immunodeficiency virus 1, UniProt Q72547)
# Test: Inhibition of HIV-1 reverse transcriptase assessed as reduction in biotin-dUTP incorporation incubated for 2 hrs in presence of template and viral nucleotides by ELISA
# Details: not given
row,Compound,IC50 [nM]
1,COC(=O)CCCn1cc(CN2CCC(Nc3nccc(Oc4c(C)cc(/C=C/C#N)cc4C)n3)CC2)nn1,73
2,Cc1cc(/C=C/C#N)cc(C)c1Oc1nc(NC2CCN(Cc3cn(CC(=O)NC4CC4)nn3)CC2)nc2sccc12,214
3,CCNC(=O)Cn1cc(CN2CCC(Nc3nc(Oc4c(C)cc(/C=C/C#N)cc4C)c4ccsc4n3)CC2)nn1,210

# Target: Human immunodeficiency virus type 1 reverse transcriptase (Human immunodeficiency virus 1) (UniProt Q72547)
# Test: Inhibition of HIV-1 reverse transcriptase incubated for 2 hrs in presence of template and viral nucleotides by ELISA relative to control
# Design: concentration or dose not given beside the values
# Details: concentration not given here
row,Compound,inhibition [%]
1,COC(=O)CCCn1cc(CN2CCC(Nc3nccc(Oc4c(C)cc(/C=C/C#N)cc4C)n3)CC2)nn1,90.7

# System: Human immunodeficiency virus 1
# Test: Antiviral activity against HIV1 IIIB infected in MT4 cells assessed as reduction in virus induced cytopathic effect incubated for 5 days by MTT method
# Type: functional, organism-based
# Details: Human immunodeficiency virus 1, IIIB, MT4, 120 h
row,Compound,EC50 [nM]
1,COC(=O)CCCn1cc(CN2CCC(Nc3nccc(Oc4c(C)cc(/C=C/C#N)cc4C)n3)CC2)nn1,6
2,Cc1cc(/C=C/C#N)cc(C)c1Oc1nc(NC2CCN(Cc3cn(CC(=O)NC4CC4)nn3)CC2)nc2sccc12,5
3,CCNC(=O)Cn1cc(CN2CCC(Nc3nc(Oc4c(C)cc(/C=C/C#N)cc4C)c4ccsc4n3)CC2)nn1,4

# System: not listed separately
# Test: Cytotoxicity against human MT4 cells assessed as reduction in cell viability incubated for 5 days by MTT method
# Type: toxicity, cell-based
# Details: time 5 day
row,Compound,CC50 at 120 h [nM]
1,COC(=O)CCCn1cc(CN2CCC(Nc3nccc(Oc4c(C)cc(/C=C/C#N)cc4C)n3)CC2)nn1,16100
2,Cc1cc(/C=C/C#N)cc(C)c1Oc1nc(NC2CCN(Cc3cn(CC(=O)NC4CC4)nn3)CC2)nc2sccc12,16900
3,CCNC(=O)Cn1cc(CN2CCC(Nc3nc(Oc4c(C)cc(/C=C/C#N)cc4C)c4ccsc4n3)CC2)nn1,19000

# System: not listed separately
# Test: Selectivity index, ratio of CC50 for human MT4 cells to EC50 for antiviral activity against HIV1 IIIB infected in MT4 cells
# Type: toxicity, cell-based
# Details: read-out: Ratio CC50/EC50
row,Compound,selectivity ratio
1,COC(=O)CCCn1cc(CN2CCC(Nc3nccc(Oc4c(C)cc(/C=C/C#N)cc4C)n3)CC2)nn1,2680
2,Cc1cc(/C=C/C#N)cc(C)c1Oc1nc(NC2CCN(Cc3cn(CC(=O)NC4CC4)nn3)CC2)nc2sccc12,3520
3,CCNC(=O)Cn1cc(CN2CCC(Nc3nc(Oc4c(C)cc(/C=C/C#N)cc4C)c4ccsc4n3)CC2)nn1,5010

# System: Human immunodeficiency virus 1
# Test: Antiviral activity against HIV1 IIIB harboring L100I mutant infected in MT4 cells assessed as reduction in virus induced cytopathic effect incubated for 5 days by MTT method
# Type: functional, organism-based
# Details: Human immunodeficiency virus 1, IIIB, MT4, 120 h
row,Compound,EC50 [nM]
1,COC(=O)CCCn1cc(CN2CCC(Nc3nccc(Oc4c(C)cc(/C=C/C#N)cc4C)n3)CC2)nn1,28
2,Cc1cc(/C=C/C#N)cc(C)c1Oc1nc(NC2CCN(Cc3cn(CC(=O)NC4CC4)nn3)CC2)nc2sccc12,6
3,CCNC(=O)Cn1cc(CN2CCC(Nc3nc(Oc4c(C)cc(/C=C/C#N)cc4C)c4ccsc4n3)CC2)nn1,7

# System: Human immunodeficiency virus 1
# Test: Antiviral activity against HIV1 IIIB harboring K103 N mutant infected in MT4 cells assessed as reduction in virus induced cytopathic effect incubated for 5 days by MTT method
# Type: functional, organism-based
# Details: Human immunodeficiency virus 1, IIIB, MT4, 120 h
row,Compound,EC50 [nM]
1,COC(=O)CCCn1cc(CN2CCC(Nc3nccc(Oc4c(C)cc(/C=C/C#N)cc4C)n3)CC2)nn1,8

# System: Human immunodeficiency virus 1
# Test: Antiviral activity against HIV1 IIIB harboring Y181C mutant infected in MT4 cells assessed as reduction in virus induced cytopathic effect incubated for 5 days by MTT method
# Type: functional, organism-based
# Details: Human immunodeficiency virus 1, IIIB, MT4, 120 h
row,Compound,EC50 [nM]
1,COC(=O)CCCn1cc(CN2CCC(Nc3nccc(Oc4c(C)cc(/C=C/C#N)cc4C)n3)CC2)nn1,28
2,Cc1cc(/C=C/C#N)cc(C)c1Oc1nc(NC2CCN(Cc3cn(CC(=O)NC4CC4)nn3)CC2)nc2sccc12,16
3,CCNC(=O)Cn1cc(CN2CCC(Nc3nc(Oc4c(C)cc(/C=C/C#N)cc4C)c4ccsc4n3)CC2)nn1,12

# System: Human immunodeficiency virus 1
# Test: Antiviral activity against HIV1 IIIB harboring Y188L mutant infected in MT4 cells assessed as reduction in virus induced cytopathic effect incubated for 5 days by MTT method
# Type: functional, organism-based
# Details: Human immunodeficiency virus 1, IIIB, MT4, 120 h
row,Compound,EC50 [nM]
1,COC(=O)CCCn1cc(CN2CCC(Nc3nccc(Oc4c(C)cc(/C=C/C#N)cc4C)n3)CC2)nn1,1090
2,Cc1cc(/C=C/C#N)cc(C)c1Oc1nc(NC2CCN(Cc3cn(CC(=O)NC4CC4)nn3)CC2)nc2sccc12,38
3,CCNC(=O)Cn1cc(CN2CCC(Nc3nc(Oc4c(C)cc(/C=C/C#N)cc4C)c4ccsc4n3)CC2)nn1,29

# System: Human immunodeficiency virus 1
# Test: Antiviral activity against HIV1 IIIB harboring E138K mutant infected in MT4 cells assessed as reduction in virus induced cytopathic effect incubated for 5 days by MTT method
# Type: functional, organism-based
# Details: Human immunodeficiency virus 1, IIIB, MT4, 120 h
row,Compound,EC50 [nM]
1,COC(=O)CCCn1cc(CN2CCC(Nc3nccc(Oc4c(C)cc(/C=C/C#N)cc4C)n3)CC2)nn1,36
2,Cc1cc(/C=C/C#N)cc(C)c1Oc1nc(NC2CCN(Cc3cn(CC(=O)NC4CC4)nn3)CC2)nc2sccc12,22
3,CCNC(=O)Cn1cc(CN2CCC(Nc3nc(Oc4c(C)cc(/C=C/C#N)cc4C)c4ccsc4n3)CC2)nn1,17

# System: Human immunodeficiency virus 1
# Test: Antiviral activity against HIV1 IIIB harboring F227L/V106A double mutant infected in MT4 cells assessed as reduction in virus induced cytopathic effect incubated for 5 days by MTT method
# Type: functional, organism-based
# Details: Human immunodeficiency virus 1, IIIB, MT4, 120 h
row,Compound,EC50 [nM]
1,COC(=O)CCCn1cc(CN2CCC(Nc3nccc(Oc4c(C)cc(/C=C/C#N)cc4C)n3)CC2)nn1,830
2,Cc1cc(/C=C/C#N)cc(C)c1Oc1nc(NC2CCN(Cc3cn(CC(=O)NC4CC4)nn3)CC2)nc2sccc12,156
3,CCNC(=O)Cn1cc(CN2CCC(Nc3nc(Oc4c(C)cc(/C=C/C#N)cc4C)c4ccsc4n3)CC2)nn1,36

# System: Human immunodeficiency virus 1
# Test: Antiviral activity against HIV1 IIIB harboring RES056 mutant infected in MT4 cells assessed as reduction in virus induced cytopathic effect incubated for 5 days by MTT method
# Type: functional, organism-based
# Details: Human immunodeficiency virus 1, IIIB, MT4, 120 h
row,Compound,EC50 [nM]
1,COC(=O)CCCn1cc(CN2CCC(Nc3nccc(Oc4c(C)cc(/C=C/C#N)cc4C)n3)CC2)nn1,2360
2,Cc1cc(/C=C/C#N)cc(C)c1Oc1nc(NC2CCN(Cc3cn(CC(=O)NC4CC4)nn3)CC2)nc2sccc12,84
3,CCNC(=O)Cn1cc(CN2CCC(Nc3nc(Oc4c(C)cc(/C=C/C#N)cc4C)c4ccsc4n3)CC2)nn1,55

# System: not listed separately
# Test: Aqueous solubility of compound at pH 7.4 incubated for 24 hrs under shaking condition by HPLC method
# Type: physicochemical
# Details: buffer
row,Compound,solubility thermodynamic at 24 h [µg/mL]
1,CCNC(=O)Cn1cc(CN2CCC(Nc3nc(Oc4c(C)cc(/C=C/C#N)cc4C)c4ccsc4n3)CC2)nn1,22.6

# System: not listed separately
# Test: Aqueous solubility of compound at pH 7 incubated for 24 hrs under shaking condition by HPLC method
# Type: physicochemical
# Details: buffer
row,Compound,solubility thermodynamic at 24 h [µg/mL]
1,CCNC(=O)Cn1cc(CN2CCC(Nc3nc(Oc4c(C)cc(/C=C/C#N)cc4C)c4ccsc4n3)CC2)nn1,25.1

# System: not listed separately
# Test: Aqueous solubility of compound at pH 2 incubated for 24 hrs under shaking condition by HPLC method
# Type: physicochemical
# Details: buffer
row,Compound,solubility thermodynamic at 24 h [µg/mL]
1,CCNC(=O)Cn1cc(CN2CCC(Nc3nc(Oc4c(C)cc(/C=C/C#N)cc4C)c4ccsc4n3)CC2)nn1,659

# System: Human immunodeficiency virus 1
# Test: Antiviral activity against HIV1 IIIB harboring Y188L mutant infected in MT4 cells assessed as fold increase in reduction of virus induced cytopathic effect incubated for 5 days by MTT method relative to A6N36
# Type: functional
# Details: time 5 day
row,Compound,fold change (FC)
1,Cc1cc(/C=C/C#N)cc(C)c1Oc1nc(NC2CCN(Cc3cn(CC(=O)NC4CC4)nn3)CC2)nc2sccc12,3
2,CCNC(=O)Cn1cc(CN2CCC(Nc3nc(Oc4c(C)cc(/C=C/C#N)cc4C)c4ccsc4n3)CC2)nn1,3
